Experimental data: publication PMC7976169 (Antiviral research, 2020)
Where two headings read alike, the source gives them in different places. Blank lines part the entries; values can stand above or below the compound they belong to.

What was measured:
Uninfected Vero cells = assay type: in vitro ADME
HSV = conditions: cited from earlier work
[1] = test system: HSV-1 KOS1.1-infected Vero cells; experiment: Biosynthesis of nucleoside analog triphosphate in HSV-infected cells; assay type: in vitro ADME
HCMV = conditions: cited from earlier work
Uninfected HFF cells = experiment: Triphosphate formation in uninfected HFF cells; assay type: in vitro ADME
[2] = test system: HCMV Towne-infected HFF cells; experiment: Biosynthesis of nucleoside analog triphosphate in HCMV-infected cells; assay type: in vitro ADME; conditions: for Other metabolites detected: five times the EC50
[3] = in vivo; cited from earlier work
[4] = read-out: EC50 against HCMV, ref Zhou et al., 2004
[5] = read-out: EC50 vs HCMV, ref Qiu et al., 1998

- Levels of phosphates in uninfected Vero cells (Uninfected Vero cells): no measurable level
Structure (SMILES): Nc1nc2c(ncn2COCCO)c(=O)[nH]1 [ACV, acyclovir]
- EC50 (HSV; reported EC50 of ACV, ref Furman et al., 1981): 1 µM

Structure (SMILES): Nc1nc2c(ncn2COCCOP(=O)(O)OP(=O)(O)OP(=O)(O)O)c(=O)[nH]1 [ACV-TP]
- Triphosphate level at 8 hours ([1]; HSV-infected cells, 5.0 μM ACV, 8 hours): 3.8 ± 0.3 pmol/10^6 cells
- Delay in production of triphosphate ([1]; HSV-infected cells, delay due to lack of HSV-TK early after infection): ~2 h

Structure (SMILES): Nc1nc2c(ncn2/C=C2/CC2(CO)CO)c(=O)[nH]1 [FCV, Filociclovir]
- EC50 (HCMV; [4]): 0.46 µM
- Fold greater efficacy against HCMV compared to GCV (HCMV; ref Zhou et al., 2004): 10 fold

- Levels of phosphates in uninfected HFF cells (Uninfected HFF cells): no measurable levels
- Other metabolites detected [2]: no other metabolites
Structure (SMILES): Nc1nc(O)c2ncn(COC(CO)CO)c2n1 [GCV, ganciclovir]
- EC50 (HCMV; [4]): 4.1 µM
- EC50 (HCMV; [5]): 7.4 µM
- Incidence of neutropenia [3]: ~ 30 % of patients

- Peak Triphosphate Level ([2]; […], maximum at 120 hours): 42.6 ± 3.7 pmol/10^6 cells
Structure (SMILES): Nc1nc(O)c2ncn(COC(CO)COP(=O)(O)OP(=O)(O)OP(=O)(O)O)c2n1 (stereo not drawn) [GCV-TP]

Structure (SMILES): CCCCOc1nc(N)nc2c1ncn2C=C1CC1(CO)CO [MBX-2168]
- Other metabolites detected ([1]; HSV-infected Vero cells, five times the EC50): no other metabolites
- Other metabolites detected [2]: no other metabolites
- EC50 (HCMV; read-out: EC50 HCMV, ref Prichard et al., 2013): 0.8 µM
- EC50 (HSV; read-out: EC50 HSV, ref Prichard et al., 2013): 6.7 µM

Structure (SMILES): Nc1ccn(C[C@@H](CO)OCP(=O)(O)O)c(=O)n1 [cidofovir]
- Incidence rate of nephrotoxicity [3]: ~ 50%

Structure (SMILES): O=C(O)P(=O)(O)O [foscarnet]
- Incidence rate of nephrotoxicity [3]: ~ 50%

- Levels of phosphates in uninfected HFF cells (Uninfected HFF cells): no measurable levels
- Other metabolites detected [2]: no other metabolites
Structure (SMILES): Nc1nc2c(ncn2/C=C2/CC2CO)c(=O)[nH]1 (stereo not drawn) [synguanol]
- EC50 (HCMV; [5]): 2.1 µM
